Data as given in patent publication US20260048130A1, “ALPHA-V BETA-6 (avb6) INTEGRIN LIGANDS FOR EXTRAHEPATIC DELIVERY” (Alnylam Pharmaceuticals, Inc., priority 2022, published 2026).
In the oligonucleotide strings, read from the 5' end, every base follows the letter of its sugar. An asterisk marks phosphorothioate; unmarked linkages are phosphodiester. Other units and linkages are bracketed, terminal groups are in braces. A string of capitals states the bases alone. {Q410} = αvβ6 integrin ligand conjugate, (S,R) stereochemistry, phosphorothioate-linked; {Q411} = αvβ6 integrin ligand conjugate, (R,R) stereochemistry variant; {L352} = αvβ6 integrin ligand conjugate, (S,R) stereochemistry; {L353} = αvβ6 integrin ligand conjugate, (S,S) stereochemistry; {L373Z511} = αvβ6 integrin ligand conjugate variant; {L373Z512} = αvβ6 integrin ligand conjugate variant; {L373Z513} = αvβ6 integrin ligand conjugate variant; {L354} = αvβ6 integrin ligand conjugate; {VP} = (E)-vinylphosphonate; m = 2'-O-methyl; f = 2'-fluoro

Key:
Sod1 mRNA = Sod1 mRNA knockdown in mouse lung after intranasal administration (RT-qPCR); assay type: in vivo; details: for % Sod1 Remaining: Day 10, relative to PBS
Method: Heart and quadricep powder were homogenized and lysed in 750 μL of QIAzol Lysis Reagent for 5 minutes×2 at 25 Hz using a TissueLyser. Chloroform ([…]) was thoroughly mixed with each sample and lysates were centrifugated at full speed for 15 minutes at 4° C. Total RNA was isolated from the supernatant using the RNeasy® 96 Universal Tissue Kit. Resulting RNA (1500 ng) was used for cDNA synthesis using the Applied Biosystems™ High-Capacity cDNA Reverse Transcription Kit with RNase Inhibitor. For qPCR reactions, 2 uL cDNA was used per 10 μL reaction. RT-qPCR was performed using the LightCycler® 480 Probes Master in the LightCycler® 480 Instrument system using gene specific TaqMan assays for each target mouse-specific Sod1 (ThermoFisher Scientific, Mm01344233_g1) and Gapdh (ThermoFisher Scientific, Mm99999915_g1) were used for RT-qPCR analysis. Each sample was analyzed in duplicate by RT-qPCR. Data were analyzed using the ΔΔCt method normalizing to control animals treated with 1×PBS alone.
Table 5 provides the study design used to evaluate the in vivo pharmacodynamic and/or pharmacologic activity of αvβ6 integrin targeting siRNA conjugates in mouse lung following intranasal administration.
Female mice were intranasally administered either a single 1 mg/kg or 10 mg/kg dose of the dsRNA agents conjugated to αvβ6 and at Day 10 post-dose animals were sacrificed and lung, heart, liver, and kidney tissues were collected. The level of Sod1 mRNA in the samples was determined by R^T-qPCR as described above.

recombinant human αvβ6 = target: T1, recombinant human αvβ6 (Homo sapiens, UniProt P06756+P18564, DEL708-788); experiment: ELISA displacement assay (αvβ6 binding to LAP/TGF1b); details: recombinant human αvβ6 vs coated human LAP/TGF1b
T1 construct: purchased R&D Systems 3817AV050
Method: ELISA plates were coated with 0.6 ug/mL recombinant human LAP/TGF1b (R&D Systems 246LP025) in carbonate buffer (pH 9.6) overnight at 4 C. Plates were washed with PBST and blocked for 1 hour at room temperature with assay buffer (20 mM Tris-HCl, 150 mM NaCl, 2 mM CaCl2, 2 mM MgCl2, 2 mM MnCl2, 0.5% BSA, pH 7.4). Serial dilutions of competitor compound in assay buffer were added to plate, as well as 1.0 ug/mL of purified recombinant human αvβ6 (R&D Systems 3817AV050), and samples were incubated for 1 hour at room temperature. Plates were washed with PBS-T, then incubated with 2.5 ug/mL of anti-integrin av primary antibody (Sigma MAB1978) for 1 hour at room temperature. Plates were washed with PBS-T, then incubated with 2.0 ug/mL of HRP-conjugated secondary antibody for 1 hour at room temperature. Samples were incubated with TMB substrate (Thermo 34024) for 15 minutes, reaction was quenched with 3 M sulfuric acid, and absorbance was measured at 450 nm. Percent binding inhibition was calculated by normalizing to a maximum value obtained from no-competitor samples and a minimum value obtained from no-competitor-no-integrin samples. EC50 values are reported in the following ranges: “A” EC50>100 nM; “B” EC50 10-100 nM; “C” EC50<10 nM.

T1 sequence (P06756 31-992 limits assumed, stated change not applied): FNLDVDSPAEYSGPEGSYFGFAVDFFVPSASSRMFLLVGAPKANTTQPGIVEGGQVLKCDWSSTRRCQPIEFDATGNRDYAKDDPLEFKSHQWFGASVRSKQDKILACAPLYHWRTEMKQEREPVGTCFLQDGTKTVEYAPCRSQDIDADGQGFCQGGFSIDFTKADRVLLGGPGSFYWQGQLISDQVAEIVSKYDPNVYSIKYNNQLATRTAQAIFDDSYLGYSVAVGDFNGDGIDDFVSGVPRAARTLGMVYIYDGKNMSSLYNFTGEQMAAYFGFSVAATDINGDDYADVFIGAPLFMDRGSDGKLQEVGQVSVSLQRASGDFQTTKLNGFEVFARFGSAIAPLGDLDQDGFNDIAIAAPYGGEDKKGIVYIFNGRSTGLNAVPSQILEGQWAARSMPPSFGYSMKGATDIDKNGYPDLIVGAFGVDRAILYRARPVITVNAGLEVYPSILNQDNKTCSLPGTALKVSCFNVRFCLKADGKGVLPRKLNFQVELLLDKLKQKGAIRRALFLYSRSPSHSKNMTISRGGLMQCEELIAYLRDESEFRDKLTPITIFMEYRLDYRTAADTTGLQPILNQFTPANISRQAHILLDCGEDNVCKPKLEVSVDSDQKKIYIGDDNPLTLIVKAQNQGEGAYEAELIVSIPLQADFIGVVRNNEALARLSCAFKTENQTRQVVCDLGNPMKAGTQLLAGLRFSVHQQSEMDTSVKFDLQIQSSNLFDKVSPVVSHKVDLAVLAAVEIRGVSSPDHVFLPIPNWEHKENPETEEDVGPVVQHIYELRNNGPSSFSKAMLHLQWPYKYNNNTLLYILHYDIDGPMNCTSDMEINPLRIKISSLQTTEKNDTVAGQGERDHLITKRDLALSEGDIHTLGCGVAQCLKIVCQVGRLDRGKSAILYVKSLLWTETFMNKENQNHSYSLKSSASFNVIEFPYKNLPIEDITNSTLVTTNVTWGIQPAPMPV
T1 sequence (P18564 22-707 limits assumed, stated change not applied): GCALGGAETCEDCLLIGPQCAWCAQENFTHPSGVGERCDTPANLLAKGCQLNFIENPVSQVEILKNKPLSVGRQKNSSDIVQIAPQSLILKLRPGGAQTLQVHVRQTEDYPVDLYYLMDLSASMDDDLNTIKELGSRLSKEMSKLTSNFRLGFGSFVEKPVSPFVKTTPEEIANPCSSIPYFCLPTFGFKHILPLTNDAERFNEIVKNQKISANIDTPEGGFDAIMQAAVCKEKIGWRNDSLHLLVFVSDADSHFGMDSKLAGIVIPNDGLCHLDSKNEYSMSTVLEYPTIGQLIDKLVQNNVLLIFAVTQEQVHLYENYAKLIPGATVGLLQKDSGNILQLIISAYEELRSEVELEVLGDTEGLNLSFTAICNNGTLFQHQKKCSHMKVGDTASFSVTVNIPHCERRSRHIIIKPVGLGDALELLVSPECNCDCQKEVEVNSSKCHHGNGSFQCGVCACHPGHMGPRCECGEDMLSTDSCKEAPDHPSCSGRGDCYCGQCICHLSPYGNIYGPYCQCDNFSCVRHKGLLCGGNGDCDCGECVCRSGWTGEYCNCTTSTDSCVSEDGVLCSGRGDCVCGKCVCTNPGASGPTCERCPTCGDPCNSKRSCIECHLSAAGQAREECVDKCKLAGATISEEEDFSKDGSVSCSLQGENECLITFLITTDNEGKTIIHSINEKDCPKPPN

| Substance | Sod1 knockdown in mouse lung, comparison between conjugate designs (Sod1 mRNA; intranasal, matched pairs by avidity or stereochemistry) | EC50 (recombinant human αvβ6) | % Sod1 Remaining (Sod1 mRNA; single intranasal 1 mg/kg) | % Sod1 Remaining (Sod1 mRNA; single intranasal 10 mg/kg) |
| --- | --- | --- | --- | --- |
| AD-1481901: "inhibition of Sod1 mRNA expression in mouse quadriceps, heart, liver, and lung 21 days after a single 2 mg/kg intravenous dose" (sense {Q410}*mC*mAmUmUmUmUfAmAfUfCfCmUmCmAmCmUmCmUmAmA*mA*{L352}; antisense {VP}-mU*fU*mUmAmGfAmGfUfGmAmGmGmAfUmUfAmAmAmAmUmG*mA*mG) | better than the triple | – | – | – |
| AD-2032892: "inhibition of Sod1 mRNA expression in mouse gastrocnemius and quadriceps 21 days after a single 2 mg/kg intravenous dose of AD-2032892" (sense mU*mU*mGmGmGmCfAmAfAfGfGmUmGmGmAmAmAmUmGmA*mA*{L354}; antisense {VP}-mU*fU*mCmAmUfUmUfCfCmAmCmCmUfUmUfGmCmCmCmAmA*mG*mU) | – | < 10 nM | – | – |
| AD-1481904.1: dsRNA agent targeting Sod1 conjugated to αvβ6 ligand: "3′-monos (AD-1481903 (S,R) vs AD-1481904 (S,S))" (sense mC*mA*mUmUmUmUfAmAfUfCfCmUmCmAmCmUmCmUmAmA*mA*{L353}; antisense {VP}-mU*fU*mUmAmGfAmGfUfGmAmGmGmAfUmUfAmAmAmAmUmG*mA*mG) | – | – | 59.2% | 49.8% |
| AD-2639645 (sense mU*mU*mGmGmGmCfAmAfAfGfGmUmGmGmAmAmAmUmGmA*mA*{L373Z511}; antisense {VP}-mU*fU*mCmAmUfUmUfCfCmAmCmCmUfUmUfGmCmCmCmAmA*mG*mU; siRNA) | – | > 100 nM | – | – |
| AD-1481899.1: "3′,5′ is better than the triple (AD-1481899 vs AD-1481901 as matched pair of (S,R) stereochemistry)" (sense mC*mA*mUmUmUmUfAmAfUfCfCmUmCmAmCmUmCmUmAmA*mA*{L354}; antisense {VP}-mU*fU*mUmAmGfAmGfUfGmAmGmGmAfUmUfAmAmAmAmUmG*mA*mG; siRNA) | – | – | 60.0% | 52.4% |
| AD-1481902.1: "inhibition of Sod1 mRNA expression in mouse quadriceps, heart, liver, and lung 21 days after a single 2 mg/kg intravenous dose" (sense {Q411}*mC*mAmUmUmUmUfAmAfUfCfCmUmCmAmCmUmCmUmAmA*mA*{L353}; antisense {VP}-mU*fU*mUmAmGfAmGfUfGmAmGmGmAfUmUfAmAmAmAmUmG*mA*mG) | – | – | 77.2% | 51.2% |
| AD-1481901.1: "3′,5′ is better than the triple (AD-1481899 vs AD-1481901 as matched pair of (S,R) stereochemistry)" (sense {Q410}*mC*mAmUmUmUmUfAmAfUfCfCmUmCmAmCmUmCmUmAmA*mA*{L352}; antisense {VP}-mU*fU*mUmAmGfAmGfUfGmAmGmGmAfUmUfAmAmAmAmUmG*mA*mG; siRNA) | – | – | 47.7% | 35.9% |
| AD-2639647 (sense mU*mU*mGmGmGmCfAmAfAfGfGmUmGmGmAmAmAmUmGmA*mA*{L373Z513}; antisense {VP}-mU*fU*mCmAmUfUmUfCfCmAmCmCmUfUmUfGmCmCmCmAmA*mG*mU; siRNA) | – | < 10 nM | – | – |
| AD-2639646 (sense mU*mU*mGmGmGmCfAmAfAfGfGmUmGmGmAmAmAmUmGmA*mA*{L373Z512}; antisense {VP}-mU*fU*mCmAmUfUmUfCfCmAmCmCmUfUmUfGmCmCmCmAmA*mG*mU; siRNA) | – | 10 to 100 nM | – | – |
